The results in this text go back to publication PMC5662840, “Effect of Gelsemium elegans and Mussaenda pubescens, the Components of a Detoxification Herbal Formula, on Disturbance of the Intestinal Absorptions of Indole Alkaloids in Caco-2 Cells” (Evidence-based Complementary and Alternative Medicine : eCAM, 2017).

Molecules are shown by their SMILES.

Data set [1] has as its system Caco-2 cells monolayer. Nature of the data set: Bidirectional transport of indole alkaloids from GE and GM extracts across Caco-2 cells monolayer. In kind it is in vitro ADME, Human. Particulars: for decrement of absorbance percentage: GM (GE combined with MP) versus GE sample; for efflux ratio γ (Papp BL-AP / Papp AP-BL): GM without inhibitor; for efflux Papp relative to absorptive Papp: GM sample. How it is done:
(§1) Human colon adenocarcinoma cell lines (Caco-2) were obtained from the cell bank of Chinese Academy of Sciences (Beijing, China). Cells were routinely grown in DMEM supplemented with 10% (v/v) fetal bovine serum, 1% (v/v) glutamine, 1% (v/v) nonessential amino acid solution, and 100 U/mL penicillin-streptomycin solution under a humidified atmosphere of 5% CO2 at 37°C. The medium was replaced every 2 days after incubation. After reaching 80% confluence, cells were passaged at a split ratio of 1 : 5, using 0.05% trypsin-EDTA. For the transport experiments, the cells of passages were seeded at a density of 1.0 × 10^6 cells/cm^2 on permeable polycarbonate inserts in 6-well tissue culture plates (Transwell Polycarbonate Membrance Insert 3414, Corning, USA), which has a surface area of 4.2 cm^2. Culture medium was changed every two days for 14 days and daily thereafter for the next 7 days. In our culture condition, cells monolayer, after seeding approximately between 19 and 21 days, usually was available for transport experiments.
(§2) The extracts, including GE and GM, were freshly prepared to the desired final concentration in DMSO. The final concentrations of DMSO in the incubation system were controlled within 0.1% (v/v) in all subsequent experiments. All transport experiments were conducted at 37°C unless specified otherwise. Transport of indole alkaloids across the Caco-2 cells monolayer was studied using monolayer of 19–21 days after seeding. Before the experiment, the monolayer was washed twice and preincubated with the blank HBSS for 1 h. Thereafter the HBSS solution on both sides of the cells monolayer was aspirated.
(§3) Transport studies were conducted in the absorptive direction (apical- (AP-) basolateral (BL)) and the efflux direction (BL-AP), separately. For determination of AP to BL transport, 2.5 mL of sample solutions was added to the AP side, respectively, and 2.5 mL of blank HBSS was added to the BL side. For determination of BL to AP transport, 2.5 mL of sample solutions was added to the BL side, respectively, and 2.5 mL of blank HBSS was added to the AP side. The cells monolayer was then put into a shaker at 50 rpm during the transport process. 400 μL of samples was taken for LC-MS/MS analysis at 0, 1, 2, 3, and 4 h after incubation, followed by an immediate replacement of 400 μL of the same solutions. At the end of the transport experiment, integrity of the monolayer was monitored by TEER value.
(§4) 400 μL of samples obtained from the Caco-2 cells transport assays was dried under nitrogen, and the residues were dissolved in 800 μL of 50% methanol. Followed by centrifugation at 12,000 rpm for 15 min, the supernatants were directly analyzed with UPLC-ESI-MS/MS. Chromatography-mass spectrum conditions were set as described above. The method researches of LC-MS/MS were similar to those described previously. Regression equations of gelsemine, humantenidine, koumine, gelsenicine, gelsevirine, and humantenine were Y = 23675X − 2864 (r = 0.9995), Y = 66331X + 13558 (r = 0.9995), Y = 6268X − 1503 (r = 0.9996), Y = 91160X − 10147 (r = 0.9998), Y = 32116X − 3951 (r = 0.9990), and Y = 36977X + 13830 (r = 0.9994), respectively.
(§5) All experiments were run in triplicate. […] The apparent permeability coefficients (Papp) for both the absorptive direction (AP→BL) and the efflux direction (BL→AP) studies were calculated according to the following:(3) Papp=dQ/dt/A×C0, where dQ/dt (μg·min^−1) is the drug permeation rate, A (cm^2) is the filter surface area, and C0 (μg·mL^−1) is the initial concentration in the donor chamber at t = 0 min.
(§6) The efflux ratio (γ) was calculated with the following equation:(4) γ=PappBL-AP/PappAP-BL.

Experiment in data set [2]: as above
Particulars: human; for efflux ratio / efflux ratio at 4 h: Caco-2, GM without inhibitor, read-out: efflux ratio γ (Papp BL-AP / Papp AP-BL); for Papp A→B / Papp B→A / Papp A→B at 4 h / Papp B→A at 4 h: Caco-2, GM (control group), mean ± SEM, n = 3; for Papp A→B / Papp A→B at 4 h: apical-to-basolateral; for Papp B→A / Papp B→A at 4 h: basolateral-to-apical. Format: in vitro ADME, Human. The protocol: as §1, §2, §3, §4, §5, §6

Data set [3] has as its system P-gp and MRP2. Nature of the data set: Inhibition transport study: GM with ciclosporin (P-gp and MRP2 inhibitor) across Caco-2 cells monolayer. Format: in vitro ADME, Human. Particulars: for decrease of efflux ratio γ: GM + ciclosporin compared with GM; for Papp A→B / Papp B→A / efflux ratio / Papp A→B at 4 h / Papp B→A at 4 h / efflux ratio at 4 h: human, Caco-2; for Papp A→B / Papp B→A / Papp A→B at 4 h / Papp B→A at 4 h: GM + ciclosporin (10 μmol), mean ± SEM, n = 3; for Papp A→B / Papp A→B at 4 h: apical-to-basolateral; for Papp B→A / Papp B→A at 4 h: basolateral-to-apical; for efflux ratio / efflux ratio at 4 h: GM + ciclosporin, read-out: efflux ratio γ (Papp BL-AP / Papp AP-BL). How it is done:
(§7) As efflux transporters (P-gp and MRP2) are expressed on the apical side of Caco-2 cells, the absorption or efflux transport of indole alkaloids across this model was investigated in the presence of efflux transporters inhibitors. A selective P-gp inhibitor, verapamil (50 μmol), was added to GM. 10 μmol ciclosporin (a P-gp and MRP2 inhibitor) was also added to GM. The control group was set as well. After the preincubation, the different mixes were performed in Caco-2 cells monolayer. Transport studies were undertaken as mentioned above in the absorptive direction (AP-BL) and the efflux direction (BL-AP), separately. The samples were taken at 0, 1, 2, 3, and 4 h for LC-MS/MS analysis. The absorption and efflux transport apparent permeability (Papp) of indole alkaloids were determined.
as §5, §6
(§8) The γ values are used to assess the effect of efflux transporters on the test compounds in the presence and absence of efflux transporters inhibitors.

The target in data set [4] is T1, P-gp (Homo sapiens, UniProt P08183).
T1 construct: endogenous in cells; host or cells: Caco-2 cells (cell bank of Chinese Academy of Sciences)
Put plainly: Inhibition transport study: GM with verapamil (P-gp inhibitor) across Caco-2 cells monolayer. In kind it is in vitro ADME. The conditions noted are these: for decrease of efflux ratio γ: GM + verapamil compared with GM; for Papp A→B / Papp B→A / efflux ratio / Papp A→B at 4 h / Papp B→A at 4 h / efflux ratio at 4 h: human, Caco-2; for Papp A→B / Papp B→A / Papp A→B at 4 h / Papp B→A at 4 h: GM + verapamil (50 μmol), mean ± SEM, n = 3; for Papp A→B / Papp A→B at 4 h: apical-to-basolateral; for Papp B→A / Papp B→A at 4 h: basolateral-to-apical; for efflux ratio / efflux ratio at 4 h: GM + verapamil, read-out: efflux ratio γ (Papp BL-AP / Papp AP-BL). The protocol:
as §7, §5, §6, §8

T1 sequence (P08183 whole entry): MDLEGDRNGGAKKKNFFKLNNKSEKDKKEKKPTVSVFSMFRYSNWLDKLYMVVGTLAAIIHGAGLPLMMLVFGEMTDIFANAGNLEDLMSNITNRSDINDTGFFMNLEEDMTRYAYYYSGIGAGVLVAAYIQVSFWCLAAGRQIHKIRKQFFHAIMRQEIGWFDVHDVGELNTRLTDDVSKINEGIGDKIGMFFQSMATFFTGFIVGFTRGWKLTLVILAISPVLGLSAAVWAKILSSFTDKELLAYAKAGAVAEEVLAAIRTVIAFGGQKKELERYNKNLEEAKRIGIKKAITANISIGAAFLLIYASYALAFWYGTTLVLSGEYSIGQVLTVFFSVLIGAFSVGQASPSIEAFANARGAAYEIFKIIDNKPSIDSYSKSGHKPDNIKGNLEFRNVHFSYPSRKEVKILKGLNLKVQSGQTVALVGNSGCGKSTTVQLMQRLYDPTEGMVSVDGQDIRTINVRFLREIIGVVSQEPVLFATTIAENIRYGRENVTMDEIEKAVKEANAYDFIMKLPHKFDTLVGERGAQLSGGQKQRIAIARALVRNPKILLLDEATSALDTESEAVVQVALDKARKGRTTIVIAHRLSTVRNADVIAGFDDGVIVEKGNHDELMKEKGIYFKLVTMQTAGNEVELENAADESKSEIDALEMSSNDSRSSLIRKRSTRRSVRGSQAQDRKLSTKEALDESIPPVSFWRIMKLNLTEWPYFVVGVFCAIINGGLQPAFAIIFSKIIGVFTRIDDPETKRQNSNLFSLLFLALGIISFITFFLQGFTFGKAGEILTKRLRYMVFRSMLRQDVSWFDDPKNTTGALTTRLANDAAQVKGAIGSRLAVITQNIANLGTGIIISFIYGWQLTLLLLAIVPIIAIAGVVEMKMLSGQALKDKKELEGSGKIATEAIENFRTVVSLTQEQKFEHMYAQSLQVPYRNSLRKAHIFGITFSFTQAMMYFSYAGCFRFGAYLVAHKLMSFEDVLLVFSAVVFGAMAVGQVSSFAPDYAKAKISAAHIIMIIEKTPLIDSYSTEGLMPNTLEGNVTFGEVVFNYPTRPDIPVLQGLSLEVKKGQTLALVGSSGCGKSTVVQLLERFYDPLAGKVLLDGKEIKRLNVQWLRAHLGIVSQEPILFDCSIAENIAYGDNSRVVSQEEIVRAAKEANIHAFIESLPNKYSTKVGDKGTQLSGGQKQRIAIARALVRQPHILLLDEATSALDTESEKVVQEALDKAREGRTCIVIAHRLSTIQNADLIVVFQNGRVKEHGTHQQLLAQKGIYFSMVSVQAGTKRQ

As to `C/C=C1\CN(C)[C@H]2C[C@@]3(C(=O)N(OC)c4ccccc43)[C@H]3C[C@@H]1[C@@H]2CO3` [Humantenine, humantenine], in data set [1] (apical to basolateral), the “decrement of absorbance percentage” value is “about 12%”. In addition, in data set [2], the efflux ratio is 1.46, the Papp A→B was 6.93 ± 1.59 ×10⁻⁶ cm/s and the Papp B→A stood at 9.87 ± 1.75 ×10⁻⁶ cm/s. For the same compound, in data set [3], the “decrease of efflux ratio γ” value is listed as 15.07%, the Papp A→B stood at 515 ± 101 ×10⁻⁶ cm/s, the Papp B→A amounted to 637 ± 90.1 ×10⁻⁶ cm/s and the efflux ratio came to 1.24. In data set [4], the “decrease of efflux ratio γ” value is 8.90%, the Papp A→B was 437 ± 71.2 ×10⁻⁶ cm/s, the Papp B→A stood at 580 ± 109 ×10⁻⁶ cm/s and the efflux ratio was determined as 1.33.
With `C=C[C@]12CN(C)[C@@H]3[C@H]4CO[C@H](C[C@H]41)[C@]1(C(=O)Nc4ccccc41)[C@@H]32` [Gelsemine, gelsemine], the “efflux ratio γ (Papp BL-AP / Papp AP-BL)” value in data set [1] is recorded as 1.07. The efflux ratio at 4 h in data set [2] was roughly 1; in data set [3] it was 1.1; in data set [4], 1.09. Moreover, the Papp A→B at 4 h in data set [2] is 6.83 ± 2.64 ×10⁻⁶ cm/s; in data set [3] it was 35.6 ± 7.63 ×10⁻⁶ cm/s; in data set [4] it was 30.3 ± 7.45 ×10⁻⁶ cm/s. The Papp B→A at 4 h turned out to be 7.33 ± 2.77 ×10⁻⁶ cm/s in data set [2], 39.1 ± 8.91 ×10⁻⁶ cm/s in data set [3] and 33.2 ± 8 ×10⁻⁶ cm/s in data set [4].
For `CCC1=N[C@H]2C[C@@]3(C(=O)N(OC)c4ccccc43)[C@H]3C[C@@H]1[C@@H]2CO3` [Gelsenicine, gelsenicine], the “decrement of absorbance percentage” value in data set [1] (apical to basolateral) is “about 12%”. Also, in data set [1], the “efflux Papp relative to absorptive Papp” value is “approximately 2.0 times” and the “efflux ratio γ (Papp BL-AP / Papp AP-BL)” value is on record as 2.39. Further, in data set [2], the efflux ratio at 4 h was greater than 2, the Papp A→B at 4 h turned out to be 2.8 ± 0.11 ×10⁻⁶ cm/s and the Papp B→A at 4 h was determined as 6.69 ± 1.35 ×10⁻⁶ cm/s. Besides, in data set [3], the “decrease of efflux ratio γ” value is reported as 40.59%, the Papp A→B at 4 h worked out at 101 ± 28.4 ×10⁻⁶ cm/s, the basolateral-to-apical permeability (Papp B→A) at 4 h was found to be 143 ± 10.8 ×10⁻⁶ cm/s and the efflux ratio at 4 h is 1.42. In data set [4], the “decrease of efflux ratio γ” value was 41.42%, the Papp A→B at 4 h worked out at 86.6 ± 15.8 ×10⁻⁶ cm/s, the Papp B→A at 4 h worked out at 122 ± 26.1 ×10⁻⁶ cm/s and the efflux ratio at 4 h was found to be 1.4.
`C=C[C@@]12CN(C)[C@H]3C[C@]14C(=Nc1ccccc14)[C@H]1C[C@@H]2[C@@H]3CO1` [Koumine, koumine]: the “efflux ratio γ (Papp BL-AP / Papp AP-BL)” value in data set [1] came out at 1.13. In data set [2], the efflux ratio is roughly 1, the apparent permeability from apical to basolateral (Papp A→B) was determined as 11.8 ± 4.01 ×10⁻⁶ cm/s and the Papp B→A is 13.4 ± 3.84 ×10⁻⁶ cm/s. Besides, in data set [3], the apical-to-basolateral permeability (Papp A→B) turned out to be 440 ± 93.3 ×10⁻⁶ cm/s, the Papp B→A stood at 524 ± 91.5 ×10⁻⁶ cm/s and the efflux ratio is 1.19. In data set [4], the Papp A→B came out at 348 ± 67.4 ×10⁻⁶ cm/s, the Papp B→A is 416 ± 80.5 ×10⁻⁶ cm/s and the efflux ratio stood at 1.19.
`CCC1=NC2CC3(C(=O)N(OC)c4ccccc43)C3OCC2C1C3O` (centres unmarked) [Humantenidine, humantenidine]: the “absorbance percentage, rank among all indole alkaloids” value in data set [1] (GE sample, apical to basolateral, during 4 h) was “highest”. For the same compound, in data set [1], the “efflux Papp relative to absorptive Papp” value is given as “approximately 2.0 times” and the “efflux ratio γ (Papp BL-AP / Papp AP-BL)” value stood at 2.93. Further, in data set [2], the efflux ratio is greater than 2, the Papp A→B turned out to be 0.14 ± 0.044 ×10⁻⁶ cm/s and the Papp B→A worked out at 0.41 ± 0.05 ×10⁻⁶ cm/s. For the same compound, in data set [3], the “decrease of efflux ratio γ” value is recorded as 42.32%, the apical-to-basolateral permeability (Papp A→B) came out at 4.48 ± 1.06 ×10⁻⁶ cm/s, the Papp B→A came out at 7.57 ± 0.36 ×10⁻⁶ cm/s and the efflux ratio worked out at 1.69. In data set [4], the “decrease of efflux ratio γ” value was 43.69%, the Papp A→B stood at 3.14 ± 1.19 ×10⁻⁶ cm/s, the basolateral-to-apical permeability (Papp B→A) is 6.17 ± 0.57 ×10⁻⁶ cm/s and the efflux ratio was determined as 1.65.
Turning to `C=CC12CN(C)C3C4COC(CC41)C1(C(=O)N(OC)c4ccccc41)C32` (centres unmarked) [Gelsevirine, gelsevirine], in data set [1] (apical to basolateral), the “decrement of absorbance percentage” value is “over 3%”. Also, in data set [1], the “efflux Papp relative to absorptive Papp” value is “approximately 2.0 times” and the “efflux ratio γ (Papp BL-AP / Papp AP-BL)” value stood at 2.00. In addition, in data set [2], the efflux ratio was greater than 2, the Papp A→B was found to be 6.33 ± 2.31 ×10⁻⁶ cm/s and the Papp B→A stood at 12.7 ± 2.67 ×10⁻⁶ cm/s. Besides, in data set [3], the “decrease of efflux ratio γ” value is on record as 34.00%, the Papp A→B was found to be 464 ± 93.8 ×10⁻⁶ cm/s, the apparent permeability from basolateral to apical (Papp B→A) came to 614 ± 56.8 ×10⁻⁶ cm/s and the efflux ratio amounted to 1.32. Further, in data set [4], the “decrease of efflux ratio γ” value is given as 36.00%, the Papp A→B came out at 392 ± 58.1 ×10⁻⁶ cm/s, the Papp B→A was 503 ± 93 ×10⁻⁶ cm/s and the efflux ratio amounted to 1.28.
